Source: patent US20250340560A1, “SUBSTITUTED PYRAZOLO[1,5-a]PYRIMIDINES AS BRUTON'S TYROSINE KINASE MODULATORS” (BEIGENE SWITZERLAND GMBH, priority 2013, published 2025)
Where a name gives a salt, the structure may show the parent alone.

Biological target: Recombinant Btk (Homo sapiens (Human), UniProt Q06187)
Experiment: BTK kinase assay (TR-FRET)
Details: read-out: IC50 (nM) Btk; 1 hour pre-incubation, ATP at Km

Recombinant Btk, sequence (Q06187 whole entry): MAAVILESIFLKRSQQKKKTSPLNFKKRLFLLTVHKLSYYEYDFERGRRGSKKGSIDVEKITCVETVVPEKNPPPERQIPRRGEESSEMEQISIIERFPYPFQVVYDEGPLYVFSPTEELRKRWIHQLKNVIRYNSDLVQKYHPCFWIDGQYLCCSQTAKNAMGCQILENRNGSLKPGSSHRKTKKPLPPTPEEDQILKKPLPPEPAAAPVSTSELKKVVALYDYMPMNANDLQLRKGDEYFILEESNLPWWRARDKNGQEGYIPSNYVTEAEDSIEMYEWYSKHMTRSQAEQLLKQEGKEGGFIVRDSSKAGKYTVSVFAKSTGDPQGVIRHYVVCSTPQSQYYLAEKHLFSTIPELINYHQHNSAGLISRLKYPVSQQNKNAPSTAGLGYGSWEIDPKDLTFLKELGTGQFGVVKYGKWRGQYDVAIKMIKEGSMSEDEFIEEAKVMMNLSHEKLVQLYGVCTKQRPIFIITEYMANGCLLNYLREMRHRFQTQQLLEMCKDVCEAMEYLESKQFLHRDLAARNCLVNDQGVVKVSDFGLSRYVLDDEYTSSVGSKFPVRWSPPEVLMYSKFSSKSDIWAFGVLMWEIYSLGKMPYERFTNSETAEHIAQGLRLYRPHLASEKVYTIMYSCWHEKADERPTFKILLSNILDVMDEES

Compared with CC(=O)N1CCc2[nH]c3c(C(N)=O)c(-c4ccc(Oc5ccccc5)cc4)nn3c2C1 [Compound 55, 7-Acetyl-2-(4-phenoxyphenyl)-5,6,7,8-tetrahydro-4H-pyrazolo[5′,1′:2,3]imidazo [4,5-c]pyridine-3-carboxamide], CC=CC(=O)N1CCc2[nH]c3c(C(N)=O)c(-c4ccc(Oc5ccccc5)cc4)nn3c2C1 [Compound 58, 7-(But-2-enoyl)-2-(4-phenoxyphenyl)-5,6,7,8-tetrahydro-4H-pyrazolo [5′,1′:2,3]imidazo[4,5-c]pyridine-3-carboxamide] is 190-fold lower in IC50: 82 nM for the first, 0.43 nM for the second.

First: N#CCC(=O)N1CCc2[nH]c3c(C(N)=O)c(-c4ccc(Oc5ccccc5)cc4)nn3c2C1 [Compound 56, 7-(2-Cyanoacetyl)-2-(4-phenoxyphenyl)-5,6,7,8-tetrahydro-4H-pyrazolo[5′,1′:2,3]imidazo[4,5-c]pyridine-3-carboxamide]
Second: CN(C)CCC(=O)N1CCc2[nH]c3c(C(N)=O)c(-c4ccc(Oc5ccccc5)cc4)nn3c2C1 [Compound 57, 7-(3-(Dimethylamino)propanoyl)-2-(4-phenoxyphenyl)-5,6,7,8-tetrahydro-4H-pyrazolo[5′,1′:2,3]imidazo[4,5-c]pyridine-3-carboxamide trifluoroacetate]
The IC50 of the first is 3-fold higher: 110 nM for the first, 37 nM for the second. The second is the more potent here.

Going from NC(=O)c1c(-c2ccc(Oc3ccccc3)cc2)nn2c1[nH]c1cnccc12 [Compound 61, 2-(4-Phenoxyphenyl)-4H-pyrazolo[1′,5′:1,2]imidazo[4,5-c]pyridine-3-carboxamide] to NC(=O)c1c(-c2ccc(Oc3ccccc3)cc2)nn2c1[nH]c1ccc([N+](=O)[O-])cc12 [Compound 65, 7-Nitro-2-(4-phenoxyphenyl)-4H-benzo[4,5]imidazo[1,2-b]pyrazole-3-carboxamide], the IC50 rises from 140 nM to 320 nM (2.3-fold). The first is the more potent here.

First: NC(=O)c1c(-c2ccc(Oc3ccccc3)cc2)nn2c3c([nH]c12)CNCC3 [Compound 62, 2-(4-Phenoxyphenyl)-5,6,7,8-tetrahydro-4H-pyrazolo[1′,5′:1,2]imidazo [4,5-c]pyridine-3-carboxamide]
Second: NC(=O)c1c(-c2ccc(Oc3ccccc3)cc2)nn2c(C3CCNCC3)cc(=O)[nH]c12 [Compound 80, 5-Oxo-2-(4-phenoxyphenyl)-7-(piperidin-4-yl)-4,5-dihydropyrazolo[1,5-a]pyrimidine-3-carboxamide]
The IC50 of the first is lower: 240 nM for the first, > 10000 nM for the second. The first is the more potent here.

First: CN(C)C/C=C/C(=O)N1CCc2c([nH]c3c(C(N)=O)c(-c4ccc(Oc5ccccc5)cc4)nn23)C1 [Compound 64, (E)-6-(4-(Dimethylamino)but-2-enoyl)-2-(4-phenoxyphenyl)-5,6,7,8-tetrahydro-4H-pyrazolo[1′,5′:1,2]imidazo[4,5-c]pyridine-3-carboxamide trifluoroacetate]
Second: C=CC(=O)N1CCC(c2cc(=O)[nH]c3c(C(N)=O)c(-c4ccc(Oc5ccccc5)cc4)nn23)CC1 [Compound 81]
The IC50 of the first is 35000-fold lower: 0.17 nM for the first, 5900 nM for the second.

Going from NC(=O)c1c(-c2ccc(Oc3ccccc3)cc2)nn2c1NCc1ccc(N)cc1-2 [Compound 68, 8-Amino-2-(4-phenoxyphenyl)-4,5-dihydropyrazolo[1,5-a]quinazoline-3-carboxamide] to NC(=O)c1c(-c2ccc(Oc3ccccc3)cc2)nn2c1NCCc1cc(N)ccc1-2 [Compound 71, 8-Amino-2-(4-phenoxyphenyl)-5,6-dihydro-4H-benzo[f]pyrazolo[1,5-a][1,3]diazepine-3-carboxamide], the IC50 falls from 190 nM to 55 nM (3.5-fold). The second is the more potent here.

First: C=CC(=O)Nc1ccc2c(c1)-n1nc(-c3ccc(Oc4ccccc4)cc3)c(C(N)=O)c1NC2 [Compound 69, 8-Acrylamido-2-(4-phenoxyphenyl)-4,5-dihydropyrazolo[1,5-a]quinazoline-3-carboxamide]
Second: C=CC(=O)Nc1ccc2c(c1)CC(=O)Nc1c(C(N)=O)c(-c3ccc(Oc4ccccc4)cc3)nn1-2 [Compound 75, 8-Acrylamido-5-oxo-2-(4-phenoxyphenyl)-5,6-dihydro-4H-benzo[f]pyrazolo[1,5-a][1,3]diazepine-3-carboxamide]
The IC50 of the first is 5.3-fold lower: 7.8 nM for the first, 41 nM for the second. The first is the more potent here.

First: NC(=O)c1c(-c2ccc(Oc3ccccc3)cc2)nn2c1NCCc1cc([N+](=O)[O-])ccc1-2 [Compound 70, 8-Nitro-2-(4-phenoxyphenyl)-5,6-dihydro-4H-benzo[f]pyrazolo[1,5-a][1,3]diazepine-3-carboxamide]
Second: NC(=O)c1c(-c2ccc(Oc3ccccc3)cc2)nn2c1NC(=O)Cc1cc([N+](=O)[O-])ccc1-2 [Compound 73, 8-Nitro-5-oxo-2-(4-phenoxyphenyl)-5,6-dihydro-4H-benzo[f]pyrazolo[1,5-a][1,3]diazepine-3-carboxamide]
The IC50 of the first is lower: 19 nM for the first, > 10000 nM for the second.

Going from NC(=O)c1c(-c2ccc(Oc3ccccc3)cc2)nn2c1NC(=O)Cc1cc(N)ccc1-2 [Compound 74, 8-Amino-5-oxo-2-(4-phenoxyphenyl)-5,6-dihydro-4H-benzo[f]pyrazolo[1,5-a][1,3]diazepine-3-carboxamide] to NC(=O)c1c(-c2ccc(Oc3ccccc3)cc2)nn2c1[nH]c(=O)c1cc(N)ccc12 [Compound 77, 7-Amino-5-oxo-2-(4-phenoxyphenyl)-4,5-dihydropyrazolo[1,5-a]quinazoline-3-carboxamide], the IC50 rises from 240 nM to 480 nM (2-fold).

First: NC(=O)c1c(-c2ccc(Oc3ccccc3)cc2)nn2c1[nH]c(=O)c1cc([N+](=O)[O-])ccc12 [Compound 76, 7-Nitro-5-oxo-2-(4-phenoxyphenyl)-4,5-dihydropyrazolo[1,5-a]quinazoline-3-carboxamide]
Second: NC(=O)c1c(-c2ccc(Oc3ccccc3)cc2)nn2c1[nH]c(=O)c1ccc(N)cc12 [Compound 79, 8-Amino-5-oxo-2-(4-phenoxyphenyl)-4,5-dihydropyrazolo[1,5-a]quinazoline-3-carboxamide]
The IC50 of the first is 110-fold higher: 5500 nM for the first, 50 nM for the second. The second is the more potent here.

Compared with C=CC(=O)Nc1ccc2c(c1)c(=O)[nH]c1c(C(N)=O)c(-c3ccc(Oc4ccccc4)cc3)nn12 [Compound 78, 7-Acrylamido-5-oxo-2-(4-phenoxyphenyl)-4,5-dihydropyrazolo[1,5-a]quinazoline-3-carboxamide], C=CC(=O)NC1CNc2c(C(N)=O)c(-c3ccc(Oc4ccccc4)cc3)nn2C1 (centres unmarked) [Compound 85, 6-Acrylamido-2-(4-phenoxyphenyl)-4,5,6,7-tetrahydropyrazolo[1,5-a]pyrimidine-3-carboxamide] is 1.5-fold higher in IC50: 21 nM for the first, 32 nM for the second.

First: NC(=O)c1c(-c2ccc(Oc3ccccc3)cc2)nn2c1NC(=O)C21CCNCC1 [Compound 82, 2-Oxo-6-(4-phenoxyphenyl)-1,2-dihydrospiro[imidazo[1,2-b]pyrazole-3,4′-piperidine]-7-carboxamide]
Second: C=CC(=O)N1CCC2(CC1)C(=O)Nc1c(C(N)=O)c(-c3ccc(Oc4ccccc4)cc3)nn12 [Compound 83, 1′-Acryloyl-2-oxo-6-(4-phenoxyphenyl)-1,2-dihydrospiro[imidazo[1,2-b]pyrazole-3,4′-piperidine]-7-carboxamide]
The IC50 of the first is 24-fold higher: 3100 nM for the first, 130 nM for the second.

First: NC(=O)c1c(-c2ccc(Oc3ccccc3)cc2)nn2c1NCC(N)C2 (centres unmarked) [Compound 84, 6-Amino-2-(4-phenoxyphenyl)-4,5,6,7-tetrahydropyrazolo[1,5-a]pyrimidine-3-carboxamide]
Second: C=CC(=O)NCC1CNc2c(C(N)=O)c(-c3ccc(Oc4ccccc4)cc3)nn2C1 (centres unmarked) [Compound 86, 6-(Acrylamidomethyl)-2-(4-phenoxyphenyl)-4,5,6,7-tetrahydropyrazolo[1,5-a]pyrimidine-3-carboxamide]
The IC50 of the first is 1300-fold higher: 2900 nM for the first, 2.2 nM for the second. The second is the more potent here.
